Experimental data as given in patent publication US20250339441A1, “METHODS OF TREATING CANCER” (FOGHORN THERAPEUTICS INC., priority 2022, published 2025).

Columns and labels:
[1] = Population PK model (nonlinear mixed-effects, two-compartment) of oral Compound A patient concentration vs. time data; format: in vivo, human
Procedure: A population PK model based on orally administered Compound A dosing data in a total of 10 patients with metastatic uveal melanoma (UM) and advanced hematologic malignancies (e.g., acute myeloid leukemia (AML)) was performed.
Nonlinear mixed-effects models were fitted to concentration vs. time data of FHD-286. Various compartmental models with linear elimination (1-, 2- and 3-compartment), absorption models, structures of omega on clearances, volumes and absorption parameters (diagonal and block) were developed to assess the PK of Compound A.
Overall, a two-compartment model with linear elimination, a zero-order oral absorption, and a lag time of absorption adequately characterized the concentration-time profiles of Compound A.
Exploratory analysis of covariate effects was performed with appropriate plots presenting relationships between the ETAs (e.g., values reflecting the difference between and individual's parameter value and that of the population) of PK parameters to identify any remaining covariate trends. […] Therefore a “Multiple Dose Effect” on CL was included in the model to account for this change over time.
No other covariates were included as part of the model.

[2] = Phase 1 dose escalation clinical trial of Compound A, oral, in subjects with metastatic uveal melanoma; format: in vivo
Procedure: A Phase 1 dose escalation clinical trial of Compound A is conducted. The trial is primarily intended to determine the maximum tolerated dose (MTD) and/or recommended phase 2 dose of the compound when administered orally to subjects with metastatic uveal melanoma (UM).
In this ongoing study, Compound A has been administered at dose levels of 2.5 mg once a day (QD), 5 mg QD, 7.5 mg QD, and 10 mg QD to 17 subjects with metastatic UM. […] In evaluable subjects, myeloid differentiation and reduction in bone marrow and/or peripheral blasts have been observed.

[3] = final population PK model, oral, 10 patients

For COC[C@H](NC(=O)c1ccn(S(C)(=O)=O)c1)C(=O)Nc1nc(-c2cccc(N3C[C@@H](C)O[C@@H](C)C3)n2)cs1 [Compound A, N-(1-((4-(6-(2,6-dimethylmorpholino)pyridin-2-yl)thiazol-2-yl)amino)-3-methoxy-1-oxopropan-2-yl)-1-(methylsulfonyl)-1H-pyrrole-3-carboxamide], the “change in clearance (CL) over time” value ([1]; after multiple doses) was “reduction”, the “CL, Estimate” value [1, 3] was 4.07 L/h and the “CLp, Estimate” value [1, 3] was 30.6 L/h. For the same molecule, the “Tlag, Estimate (lag time of absorption)” value [1, 3] was 0.452 h, the “Vc, Estimate” value [1, 3] was 54.6 L and the “Vd, Estimate” value [1, 3] was 165 L. The “Dur, Estimate (zero-order oral absorption)” value ([1]; final population PK model, oral, 10 patients with metastatic UM and advanced hematologic malignancies) was 1.77 h, the myeloid differentiation ([2]; in evaluable subjects) was “observed” and the “reduction in bone marrow and/or peripheral blasts” value ([2]; in evaluable subjects) was “observed”. For the same molecule, the dose limiting toxicity ([2]; one subject at the 7.5 mg QD dose level, improved with a dose hold) was “Grade 3 keratitis”, the “half-life (preliminary PK analysis)” value ([2]; oral 2.5, 5, 7.5, 10 mg QD, 17 subjects with metastatic UM, preliminary) was “long” and the “plasma concentrations of the compound versus dose” value ([2]; oral 2.5-10 mg QD, subjects with metastatic UM, preliminary) was “increase with increasing dose”.
